Assay results published in ChEMBL document CHEMBL1201862, “PubChem BioAssay data set” (2004).
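Briefly, cells in 96-well plates were exposed to five compound concentrations for 48 h, and endpoints were estimated by linear interpolation. The concentration for 50% growth inhibition is given as GI50.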 The source made the active and inactive calls. Rule as the data show it: active = GI50 up to about 1.1 µM and inactive = higher.

Legend:
Assay in all cases: DTP human tumour cell line panel, 48 h
786-0 = system: 786-0
A498 = system: A498
A549 = system: A549
ACHN = system: ACHN
CAKI-1 = system: CAKI-1
CCRF-CEM = system: CCRF-CEM
COLO 205 = system: COLO 205
DU-145 = system: DU-145
EKVX = system: EKVX
HCC 2998 = system: HCC 2998
HCT-116 = system: HCT-116
HCT-15 = system: HCT-15
HL-60 = system: HL-60
HOP-62 = system: HOP-62
HOP-92 = system: HOP-92
HT-29 = system: HT-29
Hs-578T = system: Hs-578T
IGROV-1 = system: IGROV-1
K562 = system: K562
KM12 = system: KM12
LOX IMVI = system: LOX IMVI
M14 = system: M14
MCF7 = system: MCF7
MDA-MB-231 = system: MDA-MB-231
MDA-MB-435 = system: MDA-MB-435
MDA-N = system: MDA-N
MOLT-4 = system: MOLT-4
Malme-3M = system: Malme-3M
NCI-H226 = system: NCI-H226
NCI-H23 = system: NCI-H23
NCI-H460 = system: NCI-H460
NCI-H522 = system: NCI-H522
OVCAR-3 = system: OVCAR-3
OVCAR-4 = system: OVCAR-4
OVCAR-5 = system: OVCAR-5
OVCAR-8 = system: OVCAR-8
PC-3 = system: PC-3
RPMI-8226 = system: RPMI-8226
RXF 393 = system: RXF 393
SF-268 = system: SF-268
SF-295 = system: SF-295
SF-539 = system: SF-539
SK-MEL-28 = system: SK-MEL-28
SK-MEL-2 = system: SK-MEL-2
SK-MEL-5 = system: SK-MEL-5
SK-OV-3 = system: SK-OV-3
SN12C = system: SN12C
SNB-19 = system: SNB-19
SNB-75 = system: SNB-75
SR = system: SR
SW-620 = system: SW-620
T47D = system: T47D
TK-10 = system: TK-10
U-251 = system: U-251
UACC-257 = system: UACC-257
UACC-62 = system: UACC-62
UO-31 = system: UO-31
BT-549 = system: BT-549
NCI/ADR-RES = system: NCI/ADR-RES

## O=[N+]([O-])C(=C1Nc2ccccc2N1)C(Cl)=C(Cl)Cl
786-0
  GI50: 63.4 µM (inactive)
A498
  GI50: > 100 µM (inactive)
A549
  GI50: > 100 µM (inactive)
ACHN
  GI50: > 100 µM (inactive)
CAKI-1
  GI50: > 100 µM (inactive)
CCRF-CEM
  GI50: 32.4 µM (inactive)
COLO 205
  GI50: > 100 µM (inactive)
DU-145
  GI50: > 100 µM (inactive)
EKVX
  GI50: > 100 µM (inactive)
HCC 2998
  GI50: > 100 µM (inactive)
HCT-116
  GI50: 88.1 µM (inactive)
HCT-15
  GI50: 38.2 µM
HL-60
  GI50: 65.6 µM (inactive)
HOP-62
  GI50: > 100 µM (inactive)
HOP-92
  GI50: > 100 µM (inactive)
HT-29
  GI50: > 100 µM (inactive)
Hs-578T
  GI50: 49.8 µM (inactive)
IGROV-1
  GI50: > 100 µM (inactive)
K562
  GI50: 81.7 µM (inactive)
KM12
  GI50: > 100 µM (inactive)
LOX IMVI
  GI50: > 100 µM (inactive)
M14
  GI50: 62.5 µM (inactive)
MCF7
  GI50: 39.7 µM (inactive)
MDA-MB-231
  GI50: 24.8 µM (inactive)
MDA-MB-435
  GI50: 88.1 µM (inactive)
MDA-N
  GI50: > 100 µM (inactive)
MOLT-4
  GI50: 19.8 µM (inactive)
Malme-3M
  GI50: 30.3 µM (inactive)
NCI-H226
  GI50: > 100 µM (inactive)
NCI-H23
  GI50: 84.5 µM (inactive)
NCI-H460
  GI50: > 100 µM (inactive)
NCI-H522
  GI50: > 100 µM (inactive)
OVCAR-3
  GI50: 18.6 µM (inactive)
OVCAR-4
  GI50: 27 µM (inactive)
OVCAR-5
  GI50: > 100 µM (inactive)
OVCAR-8
  GI50: 74.5 µM (inactive)
PC-3
  GI50: > 100 µM (inactive)
RPMI-8226
  GI50: 70 µM (inactive)
RXF 393
  GI50: 99.1 µM (inactive)
SF-268
  GI50: 44.1 µM (inactive)
SF-295
  GI50: > 100 µM (inactive)
SF-539
  GI50: > 100 µM (inactive)
SK-MEL-28
  GI50: > 100 µM (inactive)
SK-MEL-2
  GI50: > 100 µM (inactive)
SK-MEL-5
  GI50: > 100 µM (inactive)
SK-OV-3
  GI50: > 100 µM (inactive)
SN12C
  GI50: > 100 µM (inactive)
SNB-19
  GI50: > 100 µM (inactive)
SNB-75
  GI50: < 0.01 µM (active)
SR
  GI50: 51.3 µM (inactive)
SW-620
  GI50: > 100 µM (inactive)
T47D
  GI50: 31.1 µM (inactive)
TK-10
  GI50: > 100 µM (inactive)
U-251
  GI50: > 100 µM (inactive)
UACC-257
  GI50: > 100 µM (inactive)
UACC-62
  GI50: > 100 µM (inactive)
UO-31
  GI50: 65 µM (inactive)

## COc1nc2c(c(=O)[nH]1)N=C(c1ccccc1)CC(c1ccccc1)N2 (centres undefined)
786-0
  GI50: 37.7 µM (inactive)
A498
  GI50: > 100 µM (inactive)
A549
  GI50: 55.6 µM (inactive)
ACHN
  GI50: 30.3 µM (inactive)
BT-549
  GI50: 37.4 µM (inactive)
CAKI-1
  GI50: 91 µM (inactive)
CCRF-CEM
  GI50: 36.4 µM (inactive)
COLO 205
  GI50: > 100 µM (inactive)
DU-145
  GI50: 82 µM (inactive)
EKVX
  GI50: 48.9 µM (inactive)
HCC 2998
  GI50: 54.5 µM (inactive)
HCT-116
  GI50: 33.8 µM (inactive)
HL-60
  GI50: > 10 µM (inactive)
HOP-62
  GI50: 95.1 µM (inactive)
HOP-92
  GI50: 80.9 µM (inactive)
HT-29
  GI50: 44.7 µM (inactive)
IGROV-1
  GI50: 61.4 µM (inactive)
K562
  GI50: 25.3 µM (inactive)
KM12
  GI50: 30.7 µM (inactive)
LOX IMVI
  GI50: 44.8 µM (inactive)
M14
  GI50: 34.3 µM (inactive)
MCF7
  GI50: 42.2 µM (inactive)
MDA-MB-231
  GI50: 33 µM (inactive)
MDA-MB-435
  GI50: 59.7 µM (inactive)
MOLT-4
  GI50: 31.3 µM (inactive)
Malme-3M
  GI50: 72.9 µM (inactive)
NCI-H226
  GI50: 72.6 µM (inactive)
NCI-H23
  GI50: 74.3 µM (inactive)
NCI-H460
  GI50: 35.6 µM (inactive)
NCI-H522
  GI50: 35.1 µM (inactive)
NCI/ADR-RES
  GI50: 27.3 µM (inactive)
OVCAR-3
  GI50: > 100 µM (inactive)
OVCAR-4
  GI50: 26.9 µM (inactive)
OVCAR-5
  GI50: > 100 µM (inactive)
OVCAR-8
  GI50: 28.1 µM (inactive)
PC-3
  GI50: 57.9 µM (inactive)
RPMI-8226
  GI50: 27.2 µM (inactive)
RXF 393
  GI50: 31 µM (inactive)
SF-295
  GI50: 49.1 µM (inactive)
SF-539
  GI50: 48.1 µM (inactive)
SK-MEL-28
  GI50: 72.9 µM (inactive)
SK-MEL-2
  GI50: 29.6 µM (inactive)
SK-MEL-5
  GI50: 38.3 µM (inactive)
SK-OV-3
  GI50: 58.5 µM (inactive)
SN12C
  GI50: 37 µM (inactive)
SNB-19
  GI50: > 100 µM (inactive)
SNB-75
  GI50: 15.3 µM (inactive)
SR
  GI50: > 10 µM (inactive)
SW-620
  GI50: 35.7 µM (inactive)
U-251
  GI50: 44.9 µM (inactive)
UACC-257
  GI50: > 100 µM (inactive)
UACC-62
  GI50: 44.7 µM (inactive)
UO-31
  GI50: 39.6 µM (inactive)

## C=C1C(=O)O[C@H]2C/C(C)=C/CC[C@]3(C)CCC[C@](C)(CC[C@@H]12)O3
786-0
  GI50: 5.77 µM (inactive)
A549
  GI50: 16.6 µM (inactive)
ACHN
  GI50: 8.99 µM (inactive)
CAKI-1
  GI50: 12 µM (inactive)
CCRF-CEM
  GI50: 0.828 µM (active)
COLO 205
  GI50: 6.4 µM (inactive)
DU-145
  GI50: 15.2 µM (inactive)
EKVX
  GI50: 9.04 µM (inactive)
HCC 2998
  GI50: 7.24 µM (inactive)
HCT-116
  GI50: 8.69 µM (inactive)
HCT-15
  GI50: 10.8 µM
HOP-62
  GI50: 20.5 µM (inactive)
HOP-92
  GI50: 6.46 µM (inactive)
HT-29
  GI50: 8.26 µM (inactive)
Hs-578T
  GI50: 8.69 µM (inactive)
IGROV-1
  GI50: 6.59 µM (inactive)
K562
  GI50: 8.49 µM (inactive)
KM12
  GI50: 8.43 µM (inactive)
LOX IMVI
  GI50: 12.2 µM (inactive)
MCF7
  GI50: 13 µM (inactive)
MDA-MB-231
  GI50: 13.3 µM (inactive)
MDA-MB-435
  GI50: 7.01 µM (inactive)
MDA-N
  GI50: 14.6 µM (inactive)
MOLT-4
  GI50: 6.71 µM (inactive)
NCI-H226
  GI50: 11.9 µM (inactive)
NCI-H23
  GI50: 11.3 µM (inactive)
NCI-H460
  GI50: 6.79 µM (inactive)
NCI-H522
  GI50: 6.35 µM (inactive)
NCI/ADR-RES
  GI50: 7.91 µM (inactive)
OVCAR-3
  GI50: 9.53 µM (inactive)
OVCAR-4
  GI50: 15.1 µM (inactive)
OVCAR-5
  GI50: 13.7 µM (inactive)
OVCAR-8
  GI50: 7.64 µM (inactive)
PC-3
  GI50: 12.6 µM (inactive)
RPMI-8226
  GI50: 5.93 µM (inactive)
RXF 393
  GI50: 8.09 µM (inactive)
SF-268
  GI50: 7.8 µM (inactive)
SF-295
  GI50: 21.9 µM (inactive)
SF-539
  GI50: 9.48 µM (inactive)
SK-MEL-28
  GI50: 7.52 µM (inactive)
SK-MEL-2
  GI50: 8.51 µM (inactive)
SK-MEL-5
  GI50: 6.44 µM (inactive)
SK-OV-3
  GI50: 22.2 µM (inactive)
SN12C
  GI50: 12.7 µM (inactive)
SNB-19
  GI50: 15.8 µM (inactive)
SNB-75
  GI50: 11.9 µM (inactive)
SR
  GI50: 4.61 µM (inactive)
SW-620
  GI50: 7.71 µM (inactive)
T47D
  GI50: 9.71 µM (inactive)
TK-10
  GI50: 8.38 µM (inactive)
U-251
  GI50: 8.97 µM (inactive)
UACC-257
  GI50: 8.85 µM (inactive)
UACC-62
  GI50: 8.69 µM (inactive)
UO-31
  GI50: 8.69 µM (inactive)
